This test has as its system rabbit skeletal myofibrils (approximately 90% fast fibers). The test can be described thus: Activation of fast skeletal myofibrils (PUMA coupled-enzyme ATPase assay). The format is biochemical. The conditions noted are these: concentration at which the compound increased the enzymatic activity by 40%; calcium at pCa25; PM12 buffer pH 6.8. As for the experimental part: Preparation of fast skeletal myofibrils: Rabbit skeletal myofibrils were prepared based upon the method of Herrmann et al. (Biochem. 32 (28): 7255-7263 (1993). Myofibrils were prepared from rabbit psoas muscle purchased from Pel-Freez Biologicals (Arkansas) within 2 days of ordering, stored on ice. Minced muscle was homogenized in 10 volumes of ice-cold “standard” buffer (50 mM Tris, pH 7.4, 0.1 M KOAc, 5 mM KCl, 2 mM dithiothreitol (DTT), 0.2 mM phenylmethylsulfonyl fluoride (PMSF), 10 μM leupeptin, 5 μM pepstatin, and 0.5 mM sodium azide) containing 5 mM ethylenediaminetetraacetic acid (EDTA) and 0.5% Triton X-100 using an Omni-Macro homogenizer. Myofibrils were recovered by low speed centrifugation (3000 rpm for 10 minutes) and washed 2 times in the Triton X-100 containing buffer to ensure removal of cellular membrane. Following the Triton washes, myofibrils were washed 3 times in “standard” buffer containing 2 mM magnesium acetate. A final wash in assay buffer (12 mM piperazine-1,4-bis(2-ethanesulfonic acid) (PIPES), pH 6.8, 60 mM KCl, 1 mM DTT) was performed and brought to 10% sucrose for flash freezing in liquid nitrogen and storage at −80° C.
Activation of Fast Skeletal Myofibrils: Fast fiber activators were identified by measuring the enzymatic activity of muscle myofibril preparations using the proprietary PUMA (trademark) (see, e.g., U.S. Pat. Nos. 6,410,254, 6,743,599, 7,202,051, and 7,378,254) assay system. Myofibril preparations consisted of rabbit skeletal muscle (approximately 90% fast fibers) that had been mechanically homogenized and washed with a detergent (Triton X-100) to remove cellular membranes. This preparation retained all of the sarcomeric components in a native conformation and the enzymatic activity was still regulated by calcium. Compounds were tested using a myofibril suspension and a level of calcium sufficient to increase enzymatic activity of the myofibrils to 25% of their maximal rate (termed pCa25). Enzymatic activity was tracked via a pyruvate kinase and lactate dehydrogenase-coupled enzyme system. This assay regenerates myosin-produced ADP into ATP by oxidizing NADH, producing an absorbance change at 340 nm. The buffering system was 12 mM PIPES, 2 mM MgCl2, 1 mM DTT at pH 6.8 (PM12 buffer). […] In Table 3, “Example Compound” refers to the compound labeled with the same number in Table 2.
As to `CCNC(=O)N1c2ccccc2NC(=O)[C@@H]1[C@@H](C)CC` [Compound 103, (S)-2-((S)-sec-butyl)-N-ethyl-3-oxo-3,4-dihydroquinoxaline-1(2H)-carboxamide], the AC1.4 amounted to 0.78 µM.

`CCC[C@H]1C(=O)Nc2ccccc2N1C(=O)c1cnn(CCO)c1` [Compound 67, (S)-4-(1-(2-hydroxyethyl)-1H-pyrazole-4-carbonyl)-3-propyl-3,4-dihydroquinoxalin-2(1H)-one]: the AC1.4 amounted to 1.31 µM.

With `CC[C@H](C)[C@H]1C(=O)Nc2cccnc2N1C(=O)c1cnn(C)c1` [Compound 93, (S)-3-((S)-sec-butyl)-4-(1-methyl-1H-pyrazole-4-carbonyl)-3,4-dihydropyrido[2,3-b]pyrazin-2(1H)-one], the AC1.4 turned out to be 1.73 µM.

For the compound `CCC[C@H]1C(=O)Nc2ccccc2N1C(=O)Nc1cccnc1` [Compound 47, (S)-3-oxo-2-propyl-N-(pyridin-3-yl)-3,4-dihydroquinoxaline-1(2H)-carboxamide], the AC1.4 was 1.51 µM.

On to `CC[C@H](C)[C@H]1C(=O)Nc2ccccc2N1C(=O)NC1CCN(CCO)CC1` [Compound 130, (S)-2-((S)-sec-butyl)-N-(1-(2-hydroxyethyl)piperidin-4-yl)-3-oxo-3,4-dihydroquinoxaline-1(2H)-carboxamide], for which the AC1.4 turned out to be 2.13 µM.

On to `CC[C@H](C)[C@H]1C(=O)Nc2ccccc2N1C(N)=O` [Compound 99, (S)-2-((S)-sec-butyl)-3-oxo-3,4-dihydroquinoxaline-1(2H)-carboxamide], for which the AC1.4 is 0.87 µM.

Turning to `CC[C@H](C)[C@H]1C(=O)Nc2ccccc2N1C(=O)N1CC(O)C1` [Compound 101, (S)-3-((S)-sec-butyl)-4-(3-hydroxyazetidine-1-carbonyl)-3,4-dihydroquinoxalin-2(1H)-one], the AC1.4 came to 2.1 µM.

As to `CC[C@H](C)[C@H]1C(=O)Nc2ccccc2N1C(=O)c1ccc(N)nc1` [Compound 74, (S)-4-(6-aminonicotinoyl)-3-((S)-sec-butyl)-3,4-dihydroquinoxalin-2(1H)-one], the AC1.4 came to 0.08 µM.

Turning to `CCC[C@H]1C(=O)Nc2ccccc2N1C(=O)c1ccn2cncc2c1` [Compound 66, (S)-4-(imidazo[1,5-a]pyridine-7-carbonyl)-3-propyl-3,4-dihydroquinoxalin-2(1H)-one], the AC1.4 came out at 0.17 µM.

For `CC(C)[C@H]1C(=O)Nc2ccccc2N1C(=O)c1ccc(N)nc1` [Compound 82, (S)-4-(6-aminonicotinoyl)-3-isopropyl-3,4-dihydroquinoxalin-2(1H)-one], the AC1.4 worked out at 0.26 µM.

With `CC(C)[C@H]1C(=O)Nc2ccccc2N1C(=O)c1ccc(=O)[nH]c1` [Compound 85, (S)-3-isopropyl-4-(6-oxo-1,6-dihydropyridine-3-carbonyl)-3,4-dihydroquinoxalin-2(1H)-one], the AC1.4 is 0.15 µM.

`CCC[C@H]1C(=O)Nc2ccccc2N1C(=O)c1ccc(N2CCC(F)(F)C2)nc1` [Compound 43, (S)-4-(6-(3,3-difluoropyrrolidin-1-yl)nicotinoyl)-3-propyl-3,4-dihydroquinoxalin-2(1H)-one]: the AC1.4 is 2.78 µM.

For `CCC[C@H]1C(=O)Nc2ccccc2N1C(=O)c1cncc(F)c1` [Compound 18, (S)-4-(5-fluoronicotinoyl)-3-propyl-3,4-dihydroquinoxalin-2(1H)-one], the AC1.4 turned out to be 2.97 µM.

As to `CCC[C@H]1C(=O)Nc2ccccc2N1C(=O)Nc1cnn(C)c1` [Compound 59, (S)-N-(1-methyl-1H-pyrazol-4-yl)-3-oxo-2-propyl-3,4-dihydroquinoxaline-1(2H)-carboxamide], the AC1.4 is 1.96 µM.

On to `CCC[C@H]1C(=O)Nc2ccccc2N1C(=O)c1ccc(N(C)C)nc1` [Compound 28, (S)-4-(6-(dimethylamino)nicotinoyl)-3-propyl-3,4-dihydroquinoxalin-2(1H)-one], for which the AC1.4 is 1.42 µM.

On to `CCC[C@H]1C(=O)Nc2ccccc2N1C(=O)c1ccc(N2CC(OC)C2)nc1` [Compound 40, (S)-4-(6-(3-methoxyazetidin-1-yl)nicotinoyl)-3-propyl-3,4-dihydroquinoxalin-2(1H)-one], for which the AC1.4 was found to be 2.37 µM.

As for `CCC[C@H]1C(=O)Nc2ccccc2N1C(=O)NC1CCCCC1` [Compound 46, (S)-N-cyclohexyl-3-oxo-2-propyl-3,4-dihydroquinoxaline-1(2H)-carboxamide], the AC1.4 was found to be 0.47 µM.

Turning to `CC(C)[C@H]1C(=O)Nc2ccccc2N1C(=O)c1cnn(C)c1` [Compound 77, (S)-3-isopropyl-4-(1-methyl-1H-pyrazole-4-carbonyl)-3,4-dihydroquinoxalin-2(1H)-one], the AC1.4 worked out at 0.08 µM.

`CCC[C@H]1C(=O)Nc2cccc(C3CC3)c2N1C(=O)c1ccc(C)nc1` [Compound 7, (S)-5-Cyclopropyl-4-(6-methylnicotinoyl)-3-propyl-3,4-dihydroquinoxalin-2(1H)-one]: the AC1.4 is 0.96 µM.

On to `CC[C@H](C)[C@H]1C(=O)Nc2cnccc2N1C(=O)c1cccc(C)c1` [Compound 98, (S)-2-((S)-sec-butyl)-1-(3-methylbenzoyl)-1,4-dihydropyrido[3,4-b]pyrazin-3(2H)-one], for which the AC1.4 came to 0.13 µM.

For the compound `CC[C@H](C)[C@H]1C(=O)Nc2ccccc2N1C(=O)N1CC[C@H](CO)C1` [Compound 107, (S)-3-((S)-sec-butyl)-4-((S)-3-(hydroxymethyl)pyrrolidine-1-carbonyl)-3,4-dihydroquinoxalin-2(1H)-one], the AC1.4 was found to be 0.44 µM.

Consider `CCC[C@H]1C(=O)Nc2ccccc2N1C(=O)c1ccc2cncn2c1` [Compound 65, (S)-4-(imidazo[1,5-a]pyridine-6-carbonyl)-3-propyl-3,4-dihydroquinoxalin-2(1H)-one], for which the AC1.4 worked out at 0.39 µM.

Regarding `CCC[C@H]1C(=O)Nc2ccccc2N1C(=O)c1ccc(C)nc1` [Compound 3, (S)-4-(6-methylnicotinoyl)-3-propyl-3,4-dihydroquinoxalin-2(1H)-one], the AC1.4 came out at 0.77 µM.

Turning to `CCC[C@H]1C(=O)Nc2ccccc2N1C(=O)Nc1ccncc1` [Compound 48, (S)-3-oxo-2-propyl-N-(pyridin-4-yl)-3,4-dihydroquinoxaline-1(2H)-carboxamide], the AC1.4 was determined as 1.08 µM.

Consider `CCC[C@H]1C(=O)Nc2ccccc2N1C(=O)c1cnc2[nH]ncc2c1` [Compound 73, (S)-3-propyl-4-(1H-pyrazolo[3,4-b]pyridine-5-carbonyl)-3,4-dihydroquinoxalin-2(1H)-one], for which the AC1.4 was determined as 0.11 µM.

With `CCC[C@H]1C(=O)Nc2ccccc2N1C(=O)c1cccc(F)c1` [Compound 17, (S)-4-(3-fluorobenzoyl)-3-propyl-3,4-dihydroquinoxalin-2(1H)-one], the AC1.4 amounted to 0.17 µM.

With `CCC[C@H]1C(=O)Nc2ccccc2N1C(=O)c1cccs1` [Compound 15, (S)-3-propyl-4-(thiophene-2-carbonyl)-3,4-dihydroquinoxalin-2(1H)-one], the AC1.4 was 0.17 µM.

For the compound `CCC[C@H]1C(=O)Nc2ccccc2N1C(=O)N1CCc2ccccc21` [Compound 52, (S)-4-(indoline-1-carbonyl)-3-propyl-3,4-dihydroquinoxalin-2(1H)-one], the AC1.4 is 0.58 µM.

Consider `CC[C@H](C)[C@H]1C(=O)Nc2ccccc2N1C(=O)CCO` [Compound 110, (S)-3-((S)-sec-butyl)-4-(3-hydroxypropanoyl)-3,4-dihydroquinoxalin-2(1H)-one], for which the AC1.4 was found to be 1.18 µM.

On to `CCC[C@H]1C(=O)Nc2ccccc2N1C(=O)Nc1cccc(F)c1` [Compound 57, (S)-N-(3-fluorophenyl)-3-oxo-2-propyl-3,4-dihydroquinoxaline-1(2H)-carboxamide], for which the AC1.4 was 0.24 µM.

Take `CC[C@H](C)[C@H]1C(=O)Nc2ccccc2N1C(=O)N1CC(F)C1` [Compound 112, (S)-3-((S)-sec-butyl)-4-(3-fluoroazetidine-1-carbonyl)-3,4-dihydroquinoxalin-2(1H)-one]: the AC1.4 is 1.01 µM.

Take `CC[C@H](C)[C@H]1C(=O)Nc2ccccc2N1C(=O)N(C)CCO` [Compound 131, (S)-2-((S)-sec-butyl)-N-(2-hydroxyethyl)-N-methyl-3-oxo-3,4-dihydroquinoxaline-1(2H)-carboxamide]: the AC1.4 turned out to be 2.15 µM.

On to `CCC[C@H]1C(=O)Nc2ccccc2N1C(=O)c1ccc(N(C)Cc2ccccc2)nc1` [Compound 39, (S)-4-(6-(benzyl(methyl)amino)nicotinoyl)-3-propyl-3,4-dihydroquinoxalin-2(1H)-one], for which the AC1.4 was determined as 0.27 µM.

The record behind these values is patent publication US20250296916A1, “BICYCLIC PIPERAZINONES AND THERAPEUTIC USES THEREOF” (Cytokinetics, Inc., priority 2022, published 2025).
